The results in this text go back to PubChem BioAssay (NCI).

The GI50 is the concentration at which growth is held to half of that of the control. As usually defined, the TGI is the concentration giving total growth inhibition. A lower TGI goes with greater sensitivity of the cells.

Among the test systems are HS 578T breast; PC-3 prostate; MDA-MB-435; MCF7 breast; BT-549 breast; NCI/ADR-RES ovarian; LXFL 529 NSCLC; DMS 114 small cell lung; KM20L2 colon; DMS 273 small cell lung.
What all share (experiment): DTP human tumour cell line panel, 48 h

Structures are written as SMILES.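 These data come from cells grown in 96-well plates and exposed to compound for 48 hours at five concentrations. Here, GI50 denotes the concentration required for 50% inhibition of growth. At the TGI there is no net growth.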

With `C=C1C(=O)O[C@H]2[C@H]1CC/C(COC(=O)NCCc1cccc(OC)c1)=C\CC[C@@]1(C)O[C@@H]21`, the GI50 in the assay on HS 578T breast was 3.43 µM; with PC-3 prostate, 2300 nM; in the assay on MDA-MB-435, 1580 nM; with MCF7 breast, 494 nM; in the assay with BT-549 breast, 1.51 µM; in the assay on NCI/ADR-RES ovarian, 2950 nM. The TGI is 21.6 µM in the assay on HS 578T breast; 5.54 µM in the assay on PC-3 prostate; 3.7 µM in the assay on MDA-MB-435; 2.1 µM in the assay on MCF7 breast; 3.12 µM with BT-549 breast; 10.8 µM in the assay with NCI/ADR-RES ovarian.
`O=C(N/C(=C/c1cccc([N+](=O)[O-])c1)c1nc2ccc(Cl)cc2[nH]1)c1ccccc1`: the TGI in the assay with LXFL 529 NSCLC was more than 100 µM; with DMS 114 small cell lung, 62.1 µM; with KM20L2 colon, 45.4 µM.
Take `CCC[CH2][Sn]([CH2]CCC)([CH2]CCC)[O]C(=O)C(OC)c1ccccc1` (stereo not given): in the assay with KM20L2 colon, the 50% growth inhibitory concentration (GI50) was 49.1 nM and the TGI was found to be 0.171 µM.
Consider `NC(CSC(c1ccccc1)(c1ccccc1)c1ccc(F)cc1)C(=O)O` (stereo not given), for which the GI50 in the assay on HS 578T breast is 0.239 µM; in the assay with PC-3 prostate, 400 nM; in the assay on MDA-MB-435 it was 251 nM; in the assay with MCF7 breast it was 344 nM; with BT-549 breast, 1.64 µM; with NCI/ADR-RES ovarian, 2980 nM. In addition, the total growth inhibition concentration (TGI) in the assay with HS 578T breast was 0.841 µM; in the assay on PC-3 prostate, more than 35.9 µM; with MDA-MB-435, 0.654 µM; in the assay with MCF7 breast, more than 100 µM; in the assay on BT-549 breast, 86.8 µM; with NCI/ADR-RES ovarian, 19.2 µM.
On to `CCc1nn2ncccc2c1-c1ccnc(NC2CC2)n1`, for which the GI50 is more than 18.5 µM with HS 578T breast; more than 25000 nM with PC-3 prostate; more than 25000 nM with MDA-MB-435; more than 25000 nM in the assay on MCF7 breast; more than 25 µM in the assay with BT-549 breast; more than 25000 nM with NCI/ADR-RES ovarian. The total growth inhibition concentration (TGI) in the assay with HS 578T breast, in the assay with PC-3 prostate, in the assay with MDA-MB-435, with MCF7 breast, in the assay with BT-549 breast and in the assay with NCI/ADR-RES ovarian was more than 25 µM in each case.
Turning to `Cc1cccc(Nc2cc(Cl)nc(SCC(=O)O)n2)c1C`, the TGI with HS 578T breast, with PC-3 prostate, in the assay with MDA-MB-435, in the assay with MCF7 breast, in the assay with BT-549 breast and in the assay with NCI/ADR-RES ovarian was more than 100 µM each time.
Consider `O=C(NC(=O)c1cn(CCN2CCN(C(=O)NCCCCCCNC(=O)N3CCN(CCn4cc(C(=O)NC(=O)OCc5ccccc5)c(=O)[nH]c4=O)CC3)CC2)c(=O)[nH]c1=O)OCc1ccccc1`, for which the concentration for total growth inhibition (TGI) in the assay on DMS 114 small cell lung, in the assay with DMS 273 small cell lung and in the assay on KM20L2 colon was more than 100 µM in each case.
With `CCCCCCCCCCOC(=O)c1cc[n+](C)cc1`, the TGI in the assay with LXFL 529 NSCLC came out at 29.8 µM; in the assay with DMS 114 small cell lung it was 33.1 µM; in the assay on DMS 273 small cell lung it was 31.3 µM.
On to `Nc1ccccc1C(=O)NC(=O)Nc1ccc(Oc2ncc(Br)cn2)c(Cl)c1`, for which the total growth inhibition concentration (TGI) was 11.9 µM in the assay on LXFL 529 NSCLC; 10.7 µM in the assay with PC-3 prostate; less than 0.162 µM in the assay on DMS 114 small cell lung; 0.155 µM in the assay on MDA-MB-435; 30.9 µM with MCF7 breast; more than 62.9 µM in the assay with BT-549 breast. In addition, in the assay with NCI/ADR-RES ovarian, the total growth inhibition concentration (TGI) was 0.391 µM. Further, the concentration for 50% growth inhibition (GI50) with DMS 273 small cell lung was 4.85 nM.
Regarding `c1ccc(C2CC(c3ccc4ccccc4c3)=Nc3ccccc3S2)cc1` (stereo not given), the results for the total growth inhibition concentration (TGI) with LXFL 529 NSCLC, in the assay on DMS 273 small cell lung and in the assay on KM20L2 colon were 27.6 µM, 48.6 µM and 33.1 µM, respectively.
In the case of `O=C(Nc1ccc2c(c1)OCCO2)C(=O)c1c[nH]c2ccccc12`, the GI50 is 1.72 µM with HS 578T breast; 2170 nM in the assay on PC-3 prostate; 166 nM in the assay with MDA-MB-435; 1310 nM in the assay with MCF7 breast; 3.48 µM with BT-549 breast; 375 nM in the assay on NCI/ADR-RES ovarian. Further, the TGI with HS 578T breast was 22.9 µM; in the assay on PC-3 prostate it was more than 100 µM; with MDA-MB-435 it was 0.531 µM; with MCF7 breast, more than 100 µM; in the assay on BT-549 breast, 38.1 µM; with NCI/ADR-RES ovarian, 5.06 µM.
As to `Nc1ccc(-c2ccc3ncc4ccc(=O)n(-c5cccc(C(F)(F)F)c5)c4c3c2)cn1`, the GI50 with HS 578T breast is less than 0.01 µM; in the assay with PC-3 prostate it was less than 10 nM; with MDA-MB-435 it was less than 10 nM; in the assay on MCF7 breast it was less than 10 nM; with BT-549 breast, less than 0.01 µM; in the assay with NCI/ADR-RES ovarian it was 20 nM. Also, the total growth inhibition concentration (TGI) in the assay with HS 578T breast is less than 0.0253 µM; with PC-3 prostate, 5.38 µM; with MDA-MB-435, 3.26 µM; with MCF7 breast, 12.8 µM; in the assay with BT-549 breast, 0.232 µM; in the assay with NCI/ADR-RES ovarian, 13.1 µM.
For `CC(C)(C)c1nc(-c2cccc(NS(=O)(=O)c3c(F)cccc3F)c2F)c(-c2ccnc(N)n2)s1`, the GI50 in the assay with HS 578T breast is 61.1 µM; with PC-3 prostate it was 41300 nM; in the assay with MDA-MB-435 it was less than 10 nM; in the assay on MCF7 breast, 27300 nM; in the assay with BT-549 breast it was 37.5 µM; with NCI/ADR-RES ovarian, 50900 nM. The concentration for total growth inhibition (TGI) is more than 100 µM with HS 578T breast; more than 100 µM in the assay on PC-3 prostate; more than 100 µM in the assay with MDA-MB-435; more than 100 µM in the assay on MCF7 breast; more than 72.1 µM with BT-549 breast; more than 100 µM with NCI/ADR-RES ovarian.
On to `COc1cc(C2c3cc4c(cc3[C@@H](N(C)c3ccc(N(C)C)cc3)C3COC(=O)C23)OCO4)cc(OC)c1O` (stereo not given in full), for which the TGI in the assay with LXFL 529 NSCLC is 12.3 µM; in the assay on DMS 114 small cell lung, 2.24 µM; in the assay on DMS 273 small cell lung, 19.5 µM.
With `C=C(CN1c2ccccc2Sc2ccccc21)c1ccc(C(=O)Nc2ccccc2N)cc1`, the GI50 in the assay on HS 578T breast is more than 100 µM; in the assay on PC-3 prostate, 5070 nM; in the assay with MDA-MB-435, 3870 nM; with MCF7 breast, more than 42000 nM; with BT-549 breast, more than 27.3 µM; with NCI/ADR-RES ovarian it was 8770 nM. The TGI with HS 578T breast is more than 100 µM; in the assay on PC-3 prostate, more than 100 µM; with MDA-MB-435 it was 25 µM; in the assay with MCF7 breast, more than 100 µM; in the assay on BT-549 breast, more than 100 µM; with NCI/ADR-RES ovarian, more than 100 µM.
